From patent US20230310293A1, “COOLING SENSATION COMPOSITIONS” (GIVAUDAN SA, priority 2020, published 2023)

Experiment: Solubility of non-natural cooling compounds in lactic acid
Assay type: physicochemical
Details: warmed to about 50° C. with gentle agitation for 1 hour per step, highest tested weight % that dissolved
Protocol: Into a 20ml vial 0.4 g of the respective non-natural cooling compound as indicated in Table 1 below have been added followed by the addition of 1.6 g lactic acid. The vial was warmed to about 50° C. with gentle agitation for 1 hour. If the respective non-natural cooling compound hasn’t dissolved, 2 g lactic acid was added (resulting in a composition comprising 10 weight % of a non-natural cooling compound), and again gentle agitated for an additional hour at about 50° C. If the non-natural cooling compound still hasn’t dissolved, 4 g of lactic acid was added (resulting in a composition comprising 5 weight % of anon-natural cooling compound), and again gentle agitated for an additional hour at about 50° C.
If the non-natural cooling compound still has not dissolved, the procedure above has been repeated, starting with 0.05 g of the non-natural cooling compound and 0.95 g of lactic acid. If still not dissolved, 1 g lactic acid was added (resulting in a composition comprising 2.5 weight % of a non-natural cooling compound). If still not dissolved further solvent was added.
If 0.4 g the non-natural cooling compound dissolved in 1.6 g lactic acid, the procedure above has been repeated, starting with 1 g of the non-natural cooling compound and 1 g lactic acid. If the respective non-natural cooling compound hasn’t dissolved, 0.5 g lactic acid was added (resulting in a composition comprising 40 weight % of a non-natural cooling compound), and again gentle agitated for an additional hour at about 50° C. If the non-natural cooling compound still hasn’t dissolved, 0.83 g of lactic acid was added (resulting in a composition comprising 30 weight % of anon-natural cooling compound), and again gentle agitated for an additional hour at about 50° C.

Going from `CC(C)C1CCC(C)(C)CC1C(=O)NCC(O)c1ccccc1` (stereo not shown) [N-(2-hydroxy-2-phenylethyl)-2-isopropyl-5,5-dimethylcyclohexane-1-carboxamide] to `CC1CCC(C(C)C)C(C(=O)Nc2ccc(CC(N)=O)cc2)C1` (stereo not shown) [N-(4-(2-amino-2-oxoethyl)phenyl)-2-isopropyl-5-methylcyclohexane-1-carboxamide], the “Soluble solution (solubility of non-natural cooling compound in lactic acid)” value falls from 5 wt% wt % to 2.5 wt% wt %.

Going from `CCNC(=O)C1CC(C)CCC1C(C)C` (stereo not shown) [N-Ethyl-p-menthane-3-carboxamide] to `CCOC(=O)CNC(=O)C1CC(C)CCC1C(C)C` (stereo not shown) [ethyl (2-isopropyl-5-methylcyclohexane-1-carbonyl)glycinate], the “Soluble solution (solubility of non-natural cooling compound in lactic acid)” value rises from 10 wt% wt % to 20 wt% wt %.

First: CCc1ccc(OCC(=O)N(Cc2cccs2)c2cc[nH]n2)cc1 [2-(4-ethylphenoxy)-N-(1H-pyrazol-3-yl)-N-(thiophen-2-ylmethyl)acetamide]
Second: CC1CCC(C(C)C)C(OC(=O)C(C)O)C1 (stereo not shown) [2-isopropyl-5-methylcyclohexyl 2-hydroxypropanoate]
The “Soluble solution (solubility of non-natural cooling compound in lactic acid)” value of the first is lower: 5 wt% wt % for the first, 20 wt% wt % for the second.

With `CNC(=O)C(C)(C(C)C)C(C)C` [2-isopropyl-N,2,3-trimethylbutanamide] the “Soluble solution (solubility of non-natural cooling compound in lactic acid)” value was 20 wt% wt %.

Compared with `CC1CCC(C(C)C)C(C(=O)NCCc2ccccn2)C1` (stereo not shown) [2-isopropyl-5-methyl-N-(2-(pyridin-2-yl)ethyl)cyclohexane-1-carboxamide], `CCC(C)C(=O)N1CCCCC1c1ncc(-c2ccc(C)cc2)[nH]1` (stereo not shown) [2-methyl-1-(2-(5-(p-tolyl)-1H-imidazol-2-yl)piperidin-1-yl)butan-1-one] is higher in “Soluble solution (solubility of non-natural cooling compound in lactic acid)” value: 20 wt % for the first, 50 wt % for the second.

Going from `C=CC(C)(C)C(=O)N1CCCCC1c1ncc(-c2ccc(C)cc2)[nH]1` (stereo not shown) [2,2-dimethyl-1-(2-(5-(p-tolyl)-1H-imidazol-2-yl)piperidin-1-yl)but-3-en-1-one] to `CSC(C)(C)C(=O)N1CCCCC1c1ncc(-c2ccc(C)cc2)[nH]1` (stereo not shown) [2-methyl-2-(methylthio)-1-(2-(5-(p-tolyl)-1H-imidazol-2-yl)piperidin-1-yl)propan-1-one], the “Soluble solution (solubility of non-natural cooling compound in lactic acid)” value rises from 30 wt % to 40 wt %.

Going from `Cc1ccc(OCC(=O)N(Cc2cccs2)c2ccn[nH]2)cc1` [N-(1H-pyrazol-3-yl)-N-(thiophen-2-ylmethyl)-2-(p-tolyloxy)acetamide] to `CSC(C)C(=O)N1CCCCC1c1ncc(-c2ccc(C)cc2)[nH]1` (stereo not shown) [2-(methylthio)-1-(2-(5-(p-tolyl)imidazol-2-yl)piperidin-1-yl)propan-1-one], the “Soluble solution (solubility of non-natural cooling compound in lactic acid)” value rises from 30 wt % to 50 wt %.
